Test results reported in patent US9216957B2, “Androgen receptor antagonists and uses thereof” (SUZHOU KINTOR PHARMACEUTICALS, INC., priority 2011, dated 2015).

Tested on: Prostate-specific antigen (PSA) production in LNCaP cells
Test: PSA Assay (inhibition of PSA production in prostate cancer cells, ELISA)
Type: cell-based, human
Conditions: Homo sapiens, LNCaP, 72 h, read-out: LNCAP IC50 (uM), inhibition of PSA production, LNCaP cells, R1881 1 ng/ml, three days, seven point assay
Description: PSA Assay (Inhibition Test of the Compound of the Present Invention on Prostate-Specific Antigen (PSA) Production in Various Prostate Cancer Cells).
Androgen dependent LNCaP cells were purchased from the American Type Culture Collection (ATCC, Manassas, Va.). These cells were grown in RPMI 1640 medium supplemented with 10% fetal bovine serum (FBS), 100 U/mL penicillin, 100 μg/mL streptomycin, and 0.25 μg/mL amphotericin B. The cells were maintained at 37° C. and 5% CO2. LNCaP cells between passage 20 and 35 were used for experiments. LNCaP is a hormone sensitive cell line. For the PSA assay, human prostate cancer cells LNCaP were seeded in a 96-well plate at a concentration of 5000 cells/100 μl/well. On the following day, Methyltrienolone (R1881, AR agonist) (final concentration 1 ng/ml), test compounds or bicalutamide (Casodex®, AstraZeneca) (final concentration 0.005 to 20 μM) were added. Three days after the addition, the concentration of PSA in the supernatant of the culture solution was measured by ELISA. ELISAs for human PSA in culture medium were performed using the ultra-sensitive assay procedure and reagents in the Active™ PSA assay kit (Diagnostic Systems Laboratories Inc., Webster, Tex.). Culture medium and standards (200 μl/well) were incubated in antibody-coated plates for 2 h at room temperature on a Titer plate shaker at 500-600 rpm. Wells were then washed five times. The HRP conjugate was diluted 1:20 with assay buffer, and 100 μl was added to all wells. The plates were incubated for 30 min at room temperature on the shaker and washed as before, and 100 μl TMB (3,3′,5,5′-tetramethylbenzidine, 0.4 g/l) was added. The plates were incubated for 10 min on the shaker, and the reaction was terminated with 100 μl stop solution. The plates were read using a plate reader at 450 nm with a 650 nm reference filter. PSA levels were normalized for differences in growth of LNCaP cells following various treatments as determined by the MTS assay. IC50 of PSA was calculated based on a seven point assay (concentrations of tested compound) and expressed as micromolar (uM).

Compound	IC50 [µM]
CNC(=O)C(C)(C)CCc1ccc(N2C(=S)N(c3ccc(C#N)c(Cl)c3F)C(=O)C23CCC3)cc1 [Example 27, 4-{4-[7-(3-Chloro-4-cyano-2-fluoro-phenyl)-8-oxo-6-thioxo-5,7-diaza-spiro[3.4]oct-5-yl]-phenyl}-2,2,N-trimethyl-butyramide]	0.47
CC1(C)C(=O)N(c2ccc(C#N)c(C(F)(F)F)c2F)C(=S)N1c1ccc(CCCC#N)c(F)c1 [Example 28, 4-(3-(4-(3-cyanopropyl)-3-fluorophenyl)-4,4-dimethyl-5-oxo-2-thioxoimidazolidin-1-yl)-3-fluoro-2-(trifluoromethyl)benzonitrile]	0.11
CC1(C)C(=O)N(c2ccc(C#N)c(Cl)c2F)C(=S)N1c1ccc(CCCC#N)c(F)c1 [Example 29, 2-chloro-4-(3-(4-(3-cyanopropyl)-3-fluorophenyl)-4,4-dimethyl-5-oxo-2-thioxoimidazolidin-1-yl)-3-fluorobenzonitrile]	0.29
COc1c(C#N)ccc(N2C(=O)C(C)(C)N(c3ccc(CCCC#N)c(F)c3)C2=S)c1F [Example 30, 4-(3-(4-(3-cyanopropyl)-3-fluorophenyl)-4,4-dimethyl-5-oxo-2-thioxoimidazolidin-1-yl)-3-fluoro-2-methoxybenzonitrile]	0.29
N#CCCCc1ccc(N2C(=S)N(c3ccc(C#N)c(C(F)(F)F)c3F)C(=O)C23CCC3)cc1F [Example 31, 4-(5-(4-(3-cyanopropyl)-3-fluorophenyl)-8-oxo-6-thioxo-5,7-diazaspiro[3.4]octan-7-yl)-3-fluoro-2-(trifluoromethyl)benzonitrile]	0.53
COc1c(C#N)ccc(N2C(=O)C3(CCC3)N(c3ccc(CCCC#N)c(F)c3)C2=S)c1F [Example 32, 4-(5-(4-(3-cyanopropyl)-3-fluorophenyl)-8-oxo-6-thioxo-5,7-diazaspiro[3.4]octan-7-yl)-3-fluoro-2-methoxybenzonitrile]	0.36
N#CCCCc1ccc(N2C(=S)N(c3ccc(C#N)c(Cl)c3F)C(=O)C23CCC3)cc1F [Example 33, 2-chloro-4-(5-(4-(3-cyanopropyl)-3-fluorophenyl)-8-oxo-6-thioxo-5,7-diazaspiro[3.4]octan-7-yl)-3-fluorobenzonitrile]	0.64
CNC(=O)C1(CCc2ccc(N3C(=S)N(c4ccc(C#N)c(C(F)(F)F)c4F)C(=O)C3(C)C)cc2)CCC1 [Example 34, 1-(2-{4-[3-(4-Cyano-2-fluoro-3-trifluoromethyl-phenyl)-5,5-dimethyl-4-oxo-2-thioxo-imidazolidin-1-yl]-phenyl}-ethyl)-cyclobutanecarboxylic acid methylamide]	0.62
CNC(=O)C1(CCc2ccc(N3C(=S)N(c4ccc(C#N)c(C(F)(F)F)c4F)C(=O)C34CCC4)cc2)CCC1 [Example 35, 1-(2-{4-[7-(4-Cyano-2-fluoro-3-trifluoromethyl-phenyl)-8-oxo-6-thioxo-5,7-diaza-spiro[3.4]oct-5-yl]-phenyl}-ethyl)-cyclobutanecarboxylic acid methylamide]	0.44
CC1(C)C(=O)N(c2ccc(C#N)c(C(F)(F)F)c2F)C(=S)N1c1ccc(CCCC#N)nc1 [Example 36, 4-(3-(6-(3-cyanopropyl)pyridin-3-yl)-4,4-dimethyl-5-oxo-2-thioxoimidazolidin-1-yl)-3-fluoro-2-(trifluoromethyl)benzonitrile]	0.35
CC1(C)C(=O)N(c2ccc(C#N)c(Cl)c2F)C(=S)N1c1ccc(CCCC#N)nc1 [Example 37, 2-chloro-4-(3-(6-(3-cyanopropyl)pyridin-3-yl)-4,4-dimethyl-5-oxo-2-thioxoimidazolidin-1-yl)-3-fluorobenzonitrile]	0.65
CC1(C)C(=O)N(c2ccc(C#N)c(C(F)(F)F)c2)C(=S)N1c1ccc(CCCC#N)nc1 [Example 38, 4-(3-(6-(3-cyanopropyl)pyridin-3-yl)-4,4-dimethyl-5-oxo-2-thioxoimidazolidin-1-yl)-2-(trifluoromethyl)benzonitrile]	0.52
COc1c(C#N)ccc(N2C(=O)C(C)(C)N(c3ccc(CCCC#N)nc3)C2=S)c1F [Example 39, 4-(3-(6-(3-cyanopropyl)pyridin-3-yl)-4,4-dimethyl-5-oxo-2-thioxoimidazolidin-1-yl)-3-fluoro-2-methoxybenzonitrile]	0.75
CC1(C)C(=O)N(c2ccc(C#N)c(C(F)(F)F)c2F)C(=S)N1c1ccc(CCCC#N)cc1 [Example 40, 4-(3-(4-(3-cyanopropyl)phenyl)-4,4-dimethyl-5-oxo-2-thioxoimidazolidin-1-yl)-3-fluoro-2-(trifluoromethyl)benzonitrile]	0.3
CC1(C)C(=O)N(c2ccc(C#N)c(Cl)c2F)C(=S)N1c1ccc(CCCC#N)cc1 [Example 41, 2-chloro-4-(3-(4-(3-cyanopropyl)phenyl)-4,4-dimethyl-5-oxo-2-thioxoimidazolidin-1-yl)-3-fluorobenzonitrile]	0.32
N#CCCCc1ccc(N2C(=S)N(c3ccc(C#N)c(C(F)(F)F)c3F)C(=O)C23CCC3)cc1 [Example 42, 4-(5-(4-(3-cyanopropyl)phenyl)-8-oxo-6-thioxo-5,7-diazaspiro[3.4]octan-7-yl)-3-fluoro-2-(trifluoromethyl)benzonitrile]	0.85
N#CCCCc1ccc(N2C(=S)N(c3ccc(C#N)c(Cl)c3F)C(=O)C23CCC3)cc1 [Example 43, 2-chloro-4-(5-(4-(3-cyanopropyl)phenyl)-8-oxo-6-thioxo-5,7-diazaspiro[3.4]octan-7-yl)-3-fluorobenzonitrile]	0.59
CNC(=O)CCCc1ccc(N2C(=S)N(c3ccc(C#N)c(C(F)(F)F)c3F)C(=O)C2(C)C)cc1F [Example 44, 4-{4-[3-(4-Cyano-2-fluoro-3-trifluoromethyl-phenyl)-5,5-dimethyl-4-oxo-2-thioxo-imidazolidin-1-yl]-2-fluoro-phenyl}-N-methyl-butyramide]	0.11
CNC(=O)CCCc1ccc(N2C(=S)N(c3cc(C(F)(F)F)c(C#N)cc3F)C(=O)C2(C)C)cc1F [Example 45, 4-(4-(3-(4-cyano-2-fluoro-5-(trifluoromethyl)phenyl)-5,5-dimethyl-4-oxo-2-thioxoimidazolidin-1-yl)-2-fluorophenyl)-N-methylbutanamide]	2.05
CNC(=O)CCCc1ccc(N2C(=S)N(c3ccc(C#N)c(C(F)(F)F)c3F)C(=O)C23CCC3)cc1F [Example 46, 4-{4-[7-(4-Cyano-2-fluoro-3-trifluoromethyl-phenyl)-8-oxo-6-thioxo-5,7-diaza-spiro[3.4]oct-5-yl]-2-fluoro-phenyl}-N-methyl-butyramide]	0.63
CC1(C)C(=O)N(c2ccc(C#N)c(C(F)(F)F)c2F)C(=S)N1c1ccc(CCCC(=O)N2CC(O)C2)c(F)c1 [Example 47, 3-Fluoro-4-(3-{3-fluoro-4-[4-(3-hydroxy-azetidin-1-yl)-4-oxo-butyl]-phenyl}-4,4-dimethyl-5-oxo-2-thioxo-imidazolidin-1-yl)-2-trifluoromethyl-benzonitrile]	0.48
CC1(C)C(=O)N(c2ccc(C#N)c(C(F)(F)F)c2)C(=S)N1c1ccc(CCCC(=O)N2CC(O)C2)c(F)c1 [Example 48, 4-(3-{3-Fluoro-4-[4-(3-hydroxy-azetidin-1-yl)-4-oxo-butyl]-phenyl}-4,4-dimethyl-5-oxo-2-thioxo-imidazolidin-1-yl)-2-trifluoromethyl-benzonitrile]	1.04
CC1(C)C(=O)N(c2ccc(C#N)c(C(F)(F)F)c2F)C(=S)N1c1ccc(CCCc2ncco2)c(F)c1 [Example 49, 3-Fluoro-4-{3-[3-fluoro-4-(3-oxazol-2-yl-propyl)-phenyl]-4,4-dimethyl-5-oxo-2-thioxo-imidazolidin-1-yl}-2-trifluoromethyl-benzonitrile]	0.49
CC1(C)C(=O)N(c2ccc(C#N)c(C(F)(F)F)c2F)C(=S)N1c1ccc(CCCC(=O)N2CCC(O)CC2)c(F)c1 [Example 51, 3-Fluoro-4-(3-{3-fluoro-4-[4-(4-hydroxy-piperidin-1-yl)-4-oxo-butyl]-phenyl}-4,4-dimethyl-5-oxo-2-thioxo-imidazolidin-1-yl)-2-trifluoromethyl-benzonitrile]	0.39
CN1CCN(C(=O)CCCc2ccc(N3C(=S)N(c4ccc(C#N)c(C(F)(F)F)c4F)C(=O)C3(C)C)cc2F)CC1 [Example 53, 3-Fluoro-4-(3-{3-fluoro-4-[4-(4-methyl-piperazin-1-yl)-4-oxo-butyl]-phenyl}-4,4-dimethyl-5-oxo-2-thioxo-imidazolidin-1-yl)-2-trifluoromethyl-benzonitrile]	0.41
CC1(C)C(=O)N(c2ccc(C#N)c(C(F)(F)F)c2F)C(=S)N1c1ccc(CCCC(=O)N2CCOCC2)nc1 [Example 55, 4-{4,4-Dimethyl-3-[6-(4-morpholin-4-yl-4-oxo-butyl)-pyridin-3-yl]-5-oxo-2-thioxo-imidazolidin-1-yl}-3-fluoro-2-trifluoromethyl-benzonitrile]	1.2
